In BindingDB's records for patent US11306081 (Bristol Myers Squibb, 2022) one finds IC50 data, which are given here for 1 compound.

This assay concerns the target Rho-associated protein kinase 2 (Homo sapiens, UniProt O75116). In words: In Vitro Assay. As to the method: The effectiveness of compounds of the present invention as ROCK inhibitors can be determined in a 30 μL assay containing 20 mM HEPES, pH 7.5, 20 mM MgCl2, 0.015% Brij-35, 4 mM DTT, 5 μM ATP and 1.5 μM peptide substrate (FITC-AHA-AKRRRLSSLRA-OH) (SEQ ID No. 1). Compounds were dissolved in DMSO so that the final concentration of DMSO was <2%, and the reaction was initiated with Rho kinase variants. After incubation, the reaction was terminated by the addition of EDTA and the phosphorylated and non-phosphorylated peptides separated using a LABCHIP 3000 Reader (Caliper Life Sciences). […] Compounds were tested in dose-response format, and the inhibition of kinase activity was calculated at each concentration of compound. The inhibition data were fit using a curve-fitting program to determine the IC50; i.e., the concentration of compound required to inhibit 50% of kinase activity.

Chain of Rho-associated protein kinase 2 (O75116 whole entry): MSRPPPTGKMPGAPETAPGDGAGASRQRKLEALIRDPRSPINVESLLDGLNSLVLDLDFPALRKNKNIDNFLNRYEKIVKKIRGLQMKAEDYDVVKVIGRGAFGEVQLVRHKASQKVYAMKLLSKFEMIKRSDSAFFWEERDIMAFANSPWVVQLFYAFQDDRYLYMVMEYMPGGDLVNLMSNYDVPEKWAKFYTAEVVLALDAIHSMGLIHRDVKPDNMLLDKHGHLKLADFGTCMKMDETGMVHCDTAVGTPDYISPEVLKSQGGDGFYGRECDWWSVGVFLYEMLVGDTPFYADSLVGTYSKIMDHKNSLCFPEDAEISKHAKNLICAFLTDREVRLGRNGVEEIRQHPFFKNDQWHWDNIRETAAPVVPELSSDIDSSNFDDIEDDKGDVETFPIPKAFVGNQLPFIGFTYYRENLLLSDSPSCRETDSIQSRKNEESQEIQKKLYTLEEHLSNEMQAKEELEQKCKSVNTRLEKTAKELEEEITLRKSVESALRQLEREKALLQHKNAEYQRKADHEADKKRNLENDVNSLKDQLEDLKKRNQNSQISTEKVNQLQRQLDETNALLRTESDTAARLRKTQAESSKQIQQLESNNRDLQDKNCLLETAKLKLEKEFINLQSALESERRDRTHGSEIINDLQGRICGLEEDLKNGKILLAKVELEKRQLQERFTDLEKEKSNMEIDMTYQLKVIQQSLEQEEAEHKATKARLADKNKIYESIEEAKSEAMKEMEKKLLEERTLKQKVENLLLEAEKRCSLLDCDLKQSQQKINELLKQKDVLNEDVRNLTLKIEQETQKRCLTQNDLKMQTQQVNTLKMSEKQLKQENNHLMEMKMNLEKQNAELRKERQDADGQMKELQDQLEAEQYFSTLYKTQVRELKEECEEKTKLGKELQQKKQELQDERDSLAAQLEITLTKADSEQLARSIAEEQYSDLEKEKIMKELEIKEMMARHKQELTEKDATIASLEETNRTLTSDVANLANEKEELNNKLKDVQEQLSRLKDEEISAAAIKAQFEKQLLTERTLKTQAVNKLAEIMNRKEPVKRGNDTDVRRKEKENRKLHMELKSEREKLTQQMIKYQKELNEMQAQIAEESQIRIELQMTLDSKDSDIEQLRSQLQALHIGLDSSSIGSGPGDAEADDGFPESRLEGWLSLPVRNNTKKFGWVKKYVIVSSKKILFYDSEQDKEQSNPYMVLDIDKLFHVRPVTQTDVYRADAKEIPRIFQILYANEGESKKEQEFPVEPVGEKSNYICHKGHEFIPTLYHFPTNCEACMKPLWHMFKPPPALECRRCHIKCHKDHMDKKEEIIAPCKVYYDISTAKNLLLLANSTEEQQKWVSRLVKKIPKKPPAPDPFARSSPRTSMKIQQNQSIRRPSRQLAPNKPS

Regarding `COc1ccc2sc(NC(=O)Cc3ccc(Oc4ncccc4C(N)=O)c(Cl)c3)nc2c1` [US11306081, Example 115], it took 8 nM to reach half-maximal inhibition (IC50).

Broadly, the IC50 is the midpoint of a concentration-inhibition curve. Low values mean greater potency in that assay, high ones weaker potency in that assay.
